Data set [1] has as its system human MCF-7 breast tumor cells. The note with it: MCF-7 cells in alginate-poly-L-lysine-alginate microcapsules, MTT assay; cited from earlier work. A general note: Tetrazolium dyes change colour on reduction, which living cells bring about.
Data set [2] concerns LCC6/Her2 breast tumor cells. Nature of the data set: in vitro. The format is cell-based. As to the method:
(§1) Doxorubicin (Dox) is an anthracycline molecule that intercalates in DNA and inhibits topoisomerase II. As an anticancer agent, the drug inhibits RNA and DNA synthesis. During on-chip drug testing, the Dox solution was prepared with 0.2% dimethylsulfoxide (DMSO) and DMEM culture medium. After visual confirmation of spheroid formation at four days, the drug-free culture media was replaced with 400, 800, 1200, and 1600 nM Dox solutions. The drug solution was continuously perfused through the device at a rate of 0.25 μl min^−1 for two days. DMSO controls, in which the corresponding amount of DMSO in culture medium with no drug, were also carried out. Toxicity was examined after 48 h of drug dosing by quantifying cell viability.
(§2) Cell viability was indicated with live/dead calcein AM/ethidium homodimer-1 stains (Invitrogen), which were applied through pressure-driven flow control to the cells while they were entrapped in alginate in the microdevice. […]
(§3) All stained samples were imaged using fluorescence microscopy. […] The number of living cells NG was calculated by counting the number of pixels in the green (living cells) channel in the confocal images and normalizing for the size of one cell. The number of dead cells NR was similarly calculated using the red pixels. […]
(§4) The survival rate was calculated as NG/(NG+NR). The proliferation rate is calculated as (N4−N1)/N1 before drug treatment, and as (N6−N4)/N4 after drug treatment, where Nx is the number of cells on the xth day.
(§5) Images from confocal microscopy were used to determine cell survival rate and proliferation inside the three dimensional multicellular aggregates after exposure to different doxorubicin concentrations. […] Doxorubicin was the perfused with (a) 0, (b) 400, (c) 800, (d) 1200, and (e) 1600 nM doxorubicin for two days, and cell viability was measured at the end of that period after staining with a live/dead viability kit and confocal imaging. […] The number of living cells NG was calculated by counting the number of pixels (living cells) channel in the confocal image and normalizing for the size of one cell. […]

The conditions of data set [3]: at 25° C.; cited from earlier work.
A further data set in a line: in vitro. To be noted: human. The data set is classed as cell-based. As to the method:
as §1, §2, §3, §4, §5

For another data set, the system named is LCC6/Her2 cells. Description: MTS assay of cell activity, cells cultured within alginate gel beads. The data set is classed as cell-based, human. The note with it: 48 h treatment with 800 nM doxorubicin. As to the method:
as §1
For LCC6/Her2 cells cultured within alginate gel beads 100, cell activity as measured using the standard MTS assay was 35%, while cell viability as measured using the Live/Dead stains was 83%, in both cases after 48 h treatment with 800 nM doxorubicin. […] Thus, the absolute number of surviving cells, in addition to the percentage of living or dead cells, may be an important parameter in drug screening. This can be obtained by processing the data from image-based high-throughput screening systems.

Data set [4] concerns LCC6/Her2 breast tumor cells. Nature of the data set: Cell proliferation rate of tumor spheroids on-chip from confocal cell counts. The format is cell-based, human. To be noted: 1600 nM Dox exposure, 2 days. As to the method: as §1
All stained samples were imaged using fluorescence microscopy. The imaging system consisted of a fluorescent microscope (Nikon TE2000U) and a cooled, color CCD camera (Retiga). […] The number of living cells NG was calculated by counting the number of pixels in the green (living cells) channel in the confocal images and normalizing for the size of one cell. The number of dead cells NR was similarly calculated using the red pixels. […]
The survival rate was calculated as NG/(NG+NR). The proliferation rate is calculated as (N4−N1)/N1 before drug treatment, and as (N6−N4)/N4 after drug treatment, where Nx is the number of cells on the xth day. […]

The subject of the next data set is A549 human lung cells. The note with it: cited from earlier work.
Data set [5] has as its system EMT-6 mammary sarcoma cells. The note with it: EMT-6 spheroids created in a spinner flask, different exposure doses; cited from earlier work.

With `CO[C@@]12[C@H](COC(N)=O)C3=C(C(=O)C(C)=C(N)C3=O)N1C[C@@H]1N[C@@H]12` [mitomycin C], in data set [1], the “inhibition rates in multicellular spheroids versus monolayers” value is “lower inhibition rates in multicellular spheroids than in monolayers”.
`CCCCCCCCCCCCCCCC` [Hexadecane, n-hexadecane]: the “additional toxicity from droplet formation solvent (survival rate, bead versus microchannel)” value in data set [2] was “did not indicate any additional toxicity effects”. The “solubility in the aqueous phase” value in data set [3] is 9.0×10^−8 g/100 g water.
One may read the viability as a per cent measure of how many cells are alive, often set against a control. A higher viability goes with better survival. For `COc1cccc2c1C(=O)c1c(O)c3c(c(O)c1C2=O)C[C@@](O)(C(=O)CO)C[C@@H]3O[C@H]1C[C@H](N)[C@H](O)[C@H](C)O1` [doxorubicin, Doxorubicin], in “in vitro”, the cytotoxicity at 48 h, 1600 nM was 20% and the viability at 48 h, 800 nM is 83%. The “cell activity as measured using the standard MTS assay” value with LCC6/Her2 cells came out at 35%. Also, the “proliferation rate change (FIG. 10)” value in data set [4] is “marked proliferation decrease”. In the data set on A549 human lung cells, the “multicellular resistance index, ratio [IC50, spheroid/IC50, monolayer]” value was 35. Moreover, the “resistance of spheroids versus monolayer cells” value in data set [5] is given as “higher resistance”. The “inhibition rates in multicellular spheroids versus monolayers” value in data set [1] is recorded as “lower inhibition rates in multicellular spheroids than in monolayers”.
Regarding `O=c1[nH]cc(F)c(=O)[nH]1` [5-fluorouracil], the “inhibition rates in multicellular spheroids versus monolayers” value in data set [1] is listed as “lower inhibition rates in multicellular spheroids than in monolayers”.
For the compound `CC[C@]1(O)C[C@@H]2CN(CCc3c([nH]c4ccccc34)[C@@](C(=O)OC)(c3cc4c(cc3OC)N(C)[C@H]3[C@@](O)(C(=O)OC)[C@H](OC(C)=O)[C@]5(CC)C=CCN6CC[C@]43[C@@H]65)C2)C1` [vinblastine], in the data set on A549 human lung cells, the “multicellular resistance index, ratio [IC50, spheroid/IC50, monolayer]” value is reported as 6625.

The values are drawn from US20130035257A1, “MICROFLUIDIC ARRAYS AND METHODS FOR THEIR PREPARATION AND USE” (UNIVERSITY OF BRITISH COLUMBIA, priority 2011, published 2013).
